This is an account of results in PMC11360041 (ACS Omega, 2024).

Assay [1] relates to TMV. The assay can be described thus: Protective effect of compounds against TMV in vivo. Further details: species or system tobacco mosaic virus. Particulars: for inhibition at 100 µg/mL / inhibition at 500 µg/mL: Tobacco mosaic virus, read-out: relative inhibition rate (%) protective effect.
The subject of assay [2] is TMV. The assay can be described thus: Curative effect of compounds against TMV in vivo. Conditions: Tobacco mosaic virus, read-out: relative inhibition rate (%) curative effect.
For assay [3], the system named is TMV. The assay is described as follows: Inactivation effect of compounds against TMV in vivo. Further details: species or system tobacco mosaic virus. Conditions: for inhibition at 100 µg/mL / inhibition at 500 µg/mL: Tobacco mosaic virus, read-out: relative inhibition rate (%) inactive effect.
Assay [4] has as its system Fusarium graminearum. The assay can be described thus: microbe, parasite or virus in culture. Format: cell-based. Conditions: read-out: Inhibition rate, Fg.
For assay [5], the system named is Alternaria solani. Type of assay: cell-based. Conditions: read-out: Inhibition rate, As.
Assay [6] has as its system 14 kinds of phytopathogenic fungi. The assay can be described thus: Fungicidal activity against 14 kinds of phytopathogenic fungi. Format: cell-based. Conditions: read-out: inhibitory rate against three fungi.
Assay [7] concerns Physalospora piricola. Format: cell-based. Conditions: read-out: Inhibition rate, Pp, 50 mg/L, Physalospora piricola.
The test system of assay [8] is TMV particles. The assay is described as follows: Morphological observation of TMV particles via transmission electron microscopy. On the set-up: species or system tobacco mosaic virus. Particulars: 500 mg/L.
The subject of assay [9] is watermelon anthracnose. The assay can be described thus: organism not typed. Format: cell-based. Conditions: read-out: Inhibition rate, Wa.
In assay [10] the test system is Bipolaris maydis. Type of assay: cell-based. Conditions: read-out: Inhibition rate, Bm.
The subject of assay [11] is Botrytis cinerea. Type of assay: cell-based. Conditions: read-out: Inhibition rate, Bc.
Assay [12] relates to Phytophthora capsici. Type of assay: cell-based. Conditions: read-out: Inhibition rate, Pc.
Assay [13] has as its target T1, TMV coat protein (TMV-CP) (Tobacco mosaic virus, UniProt P69687).
T1 sequence (P69687 2-159 limits assumed): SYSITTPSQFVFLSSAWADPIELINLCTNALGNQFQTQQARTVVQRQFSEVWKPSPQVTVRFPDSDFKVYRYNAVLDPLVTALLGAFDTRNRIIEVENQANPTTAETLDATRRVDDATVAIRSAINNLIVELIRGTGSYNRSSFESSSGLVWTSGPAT
The assay is described as follows: Microscale thermophoresis binding to TMV-CP. In general terms: MST reads how a fluorescent partner responds to local heating, with and without ligand.

Assay [14] concerns Sclerotinia sclerotiorum. Format: cell-based. Conditions: read-out: Inhibition rate, Ss.
In assay [15] the test system is Fusarium oxysporium f. sp. cucumeris. Type of assay: cell-based. Conditions: read-out: Inhibition rate, Fc.
In assay [16] the test system is Rhizoctonia solani. Format: cell-based. Particulars: read-out: Inhibition rate, Rs.
Assay [17] relates to TMV. Particulars: cited from earlier work.
For assay [18], the system named is TMV. Conditions: 500 mg/L; cited from earlier work.
Assay [19] relates to TMV. Conditions: 500 mg/L; cited from earlier work. This is another data set of the same source.
Assay [20] concerns TMV. Conditions: 500 mg/L; cited from earlier work. The source holds these as a separate data set.

“Also recorded” adds a separate entry of the source.

As for `NNC(=O)Cn1ccc(=O)c2ccccc21` [C, (4-Oxo-4H-quinolin-1-yl)-acetic Acid Hydrazide], the values for the inhibition at 100 µg/mL in assay [1], in assay [2] and in [3] were 11.4 ± 2.9%, 8.2 ± 0.5% and 17.2 ± 1.1%, respectively. For the same compound, the inhibition at 500 µg/mL turned out to be 47.8 ± 4.8% in [1], 31.5 ± 2% in assay [2] and 45.9 ± 3.3% in assay [3].

For `COc1cccc(C=NNC(=O)Cn2ccc(=O)c3ccccc32)c1` [Compound 4], the inhibition at 50 µg/mL in assay [4] is 38.1 ± 1.9%; in assay [5] it was 61.5 ± 3.2%; in assay [6], more than 40%; in assay [7], 38.2 ± 1.7%; in assay [9], 39.5 ± 1.1%; in assay [10], 33.3 ± 1.4%. Further, the inhibition at 50 µg/mL in assay [11] stood at 14.6 ± 0.7%; in assay [12], 38.1 ± 1.7%; in [14], 36.6 ± 1.5%; in [15], 36.7 ± 1.4%; in assay [16] it was 57.1 ± 2.3%. Besides, the figures for the inhibition at 100 µg/mL in assay [1], in assay [2] and in assay [3] were 15.8 ± 2.5%, 14 ± 0.5% and 16.8 ± 0.3%, respectively. Moreover, the inhibition at 500 µg/mL was determined as 46.3 ± 1.8% in assay [1], 47.6 ± 2.5% in assay [2] and 51.2 ± 1.9% in assay [3]. Moreover, the “effect on the morphology of TMV particles (TEM)” value in assay [8] is “hindered the self-assembly and growth of TMV; also recorded: fragmented into shorter rods”. The compound also had a Kd in [13] of 142 ± 60 nM.

For the compound `O=C(Cn1ccc(=O)c2ccccc21)NN=Cc1ccc(-c2ccccc2)cc1` [Compound 11], the inhibition at 50 µg/mL in [4] was 9.5 ± 0.7%; in [5] it was 38.5 ± 2.4%; in [7] it was 17.6 ± 1.6%; in assay [9], 14 ± 1.7%; in assay [10], 11.1 ± 0.9%; in [11], 25 ± 1.8%. Further, the inhibition at 50 µg/mL worked out at 26.2 ± 1.5% in [12], 22 ± 1.4% in assay [14], 22.4 ± 1.3% in [15] and 35.7 ± 2.2% in [16]. The results for the inhibition at 100 µg/mL in assay [1], in assay [2] and in assay [3] were 20.9 ± 0.4%, 10.1 ± 2% and 19.8 ± 2.8%, respectively. Also, the inhibition at 500 µg/mL in [1] amounted to 45.2 ± 1.1%; in [2] it was 43 ± 2.7%; in assay [3], 49.6 ± 3.9%.

On to `O=C(Cn1ccc(=O)c2ccccc21)NN=Cc1ccc(C(F)(F)F)cc1` [Compound 17], for which the inhibition at 50 µg/mL was found to be 19 ± 1.2% in assay [4]; 15.4 ± 1.3% in assay [5]; 47.1 ± 1.4% in assay [7]; 11.6 ± 1.2% in assay [9]; 8.9 ± 0.9% in [10]; 18.8 ± 1.5% in assay [11]. Moreover, the inhibition at 50 µg/mL in assay [12] is 9.5 ± 0.8%; in assay [14], 22 ± 1.3%; in assay [15], 26.5 ± 1.7%; in assay [16], 3.6 ± 0.7%. For the same compound, the inhibition at 100 µg/mL was found to be 19 ± 1.8% in assay [1], 17.7 ± 1.5% in [2] and 7.5 ± 0.2% in [3]. The inhibition at 500 µg/mL in assay [1] came out at 44.1 ± 1.4%; in assay [2], 49.2 ± 3%; in [3], 47.1 ± 1.9%.

On to `O=C(Cn1ccc(=O)c2ccccc21)NN=Cc1ccco1` [Compound 20], for which the inhibition at 50 µg/mL amounted to 14.3 ± 1.4% in [4]; 38.5 ± 0.5% in [5]; 39.7 ± 1.3% in assay [7]; 16.3 ± 1.6% in assay [9]; 20 ± 1.1% in assay [10]; 20.8 ± 1.3% in assay [11]. Besides, the inhibition at 50 µg/mL in assay [12] worked out at 14.3 ± 1.1%; in [14], 36.6 ± 1.7%; in assay [15], 16.3 ± 2%; in [16] it was 35.7 ± 1.8%. Also, the inhibition at 100 µg/mL in assay [3] stood at 0%. In [3], the inhibition at 500 µg/mL amounted to 29.7 ± 3.6%.

Consider `O=C(Cn1ccc(=O)c2ccccc21)NN=Cc1cccs1` [Compound 21], for which the inhibition at 50 µg/mL in assay [4] turned out to be 9.5 ± 1.4%; in assay [5], 38.5 ± 1.3%; in assay [7], 76.5 ± 2.7%; in assay [9], 14 ± 0.7%; in assay [10], 17.8 ± 1.2%; in assay [11], 31.3 ± 2.1%. In addition, the inhibition at 50 µg/mL in [12] turned out to be 26.2 ± 2.3%; in assay [14] it was 17.1 ± 1.7%; in assay [15], 12.2 ± 1.6%; in assay [16], 35.7 ± 1.5%. Further, the inhibition at 100 µg/mL in [3] stood at 0%. In addition, in [3], the inhibition at 500 µg/mL came to 12.3 ± 1.7%.

With `O=C(Cn1ccc(=O)c2ccccc21)NN=Cc1cscn1` [Compound 22], the inhibition at 50 µg/mL in [4] was 2.4 ± 0.5%; in [5], 7.7 ± 1.2%; in assay [7], 32.4 ± 1.3%; in assay [9], 14 ± 1.7%; in [10], 8.9 ± 0.8%; in assay [11] it was 25 ± 2.1%. The inhibition at 50 µg/mL in assay [12] turned out to be 26.2 ± 1.5%; in assay [14] it was 7.3 ± 0.9%; in assay [15] it was 12.2 ± 1.6%; in [16], 26.8 ± 1.1%. Moreover, the inhibition at 100 µg/mL in [3] was determined as 0%. The inhibition at 500 µg/mL in assay [3] worked out at 23.9 ± 1.1%.

On to `O=C(Cn1ccc(=O)c2ccccc21)NN=Cc1cc2ccccc2[nH]1` [Compound 23], for which the inhibition at 50 µg/mL in assay [4] amounted to 14.3 ± 1.1%; in assay [5] it was 15.4 ± 1.5%; in assay [7] it was 51.5 ± 2.3%; in assay [9], 11.6 ± 0.9%; in [10], 8.9 ± 1.1%; in assay [11], 10.4 ± 1.2%. Further, the inhibition at 50 µg/mL in assay [12] came out at 31 ± 2.1%; in assay [14] it was 12.2 ± 0.9%; in assay [15] it was 6.1 ± 1.3%; in [16], 3.6 ± 0.5%. For the same compound, the “relative inhibition rate (%) protective effect” value in [1] (100 mg/L, in vivo, against TMV) is reported as “did not exhibit any”. For the same compound, the figures for the inhibition at 100 µg/mL in assay [1], in assay [2] and in [3] were 0%, 6.6 ± 1.9% and 0%, respectively. Also, the inhibition at 500 µg/mL was determined as 43.9 ± 1% in assay [1], 32.5 ± 4.1% in assay [2] and 40.1 ± 2.7% in assay [3]. Besides, the “relative inhibition rate (%) inactive effect” value in assay [3] (100 mg/L, in vivo, against TMV) is listed as “did not exhibit any”.

In the case of `O=C(Cn1ccc(=O)c2ccccc21)NN=Cc1coc2ccccc12` [Compound 24], the inhibition at 50 µg/mL in [4] came to 19 ± 1.2%; in [5], 23.1 ± 1.3%; in assay [7], 17.6 ± 1.2%; in assay [9] it was 9.3 ± 0.7%; in assay [10], 11.1 ± 1.8%; in [11], 20.8 ± 1.5%. The inhibition at 50 µg/mL worked out at 19 ± 0.9% in [12], 12.2 ± 0.5% in [14], 22.4 ± 1.2% in assay [15] and 17.9 ± 1.5% in assay [16]. Further, the inhibition at 100 µg/mL in assay [3] turned out to be 0%. In assay [3], the inhibition at 500 µg/mL is 33.5 ± 0.6%.

With `CNCC(=O)N[C@@H](CO)C(=O)N[C@H]1[C@H](O)[C@@H](O)[C@H](n2ccc(N)nc2=O)O[C@@H]1C(N)=O` [Ningnanmycin], in assay [17], the “actual inhibitory effect in the field” value was “lower than 60%”.

With `NC(=O)c1ncn([C@@H]2O[C@H](CO)[C@@H](O)[C@H]2O)n1` [Ribavirin, reference compound], the values for the inhibition at 100 µg/mL in assay [1], in assay [2] and in [3] were 13.4 ± 0.7%, 10.1 ± 1.6% and 12.1 ± 1.4%, respectively. For the same compound, the figures for the inhibition at 500 µg/mL in assay [1], in [2] and in [3] were 40.8 ± 1%, 38 ± 2.2% and 39.2 ± 3.5%, respectively. The “effect on the morphology of TMV particles (TEM)” value in assay [8] is “fragmented into shorter rods”. In assay [13], this compound gave a Kd of 512 ± 257 nM.

Regarding `Cn1ccc(=O)c2ccccc21` [echinopsine], the “curative activity against TMV” value in assay [18] was 46.1%. Moreover, in [19], the “protective activity against TMV” value is reported as 42.6%. Also, the “inactive activity against TMV” value in assay [20] is reported as 49.5%.

Broadly, the Kd is the concentration at which binding is half-saturated.
